Experiment: xn = mol fraction of the nth substance listed
Conditions: 100 kPa

CCCCCCCC[n+]1ccccc1.[Br-] + CC(C)[C@H](NC(=O)CN)C(=O)O + O
Conditions | electrical conductivity [S/m]
288.15 K, x2 = 0.0008946, x1 = 0.00616 | 1.33
288.15 K, x2 = 0.0008949, x1 = 0.005884 | 1.29
288.15 K, x2 = 0.0008952, x1 = 0.005575 | 1.25
288.15 K, x2 = 0.0008955, x1 = 0.005248 | 1.21
288.15 K, x2 = 0.0008958, x1 = 0.004887 | 1.17
288.15 K, x2 = 0.0008961, x1 = 0.004507 | 1.12
288.15 K, x2 = 0.0008965, x1 = 0.004077 | 1.05
288.15 K, x2 = 0.0008969, x1 = 0.003608 | 0.964
288.15 K, x2 = 0.0008974, x1 = 0.003092 | 0.861
288.15 K, x2 = 0.0008979, x1 = 0.002527 | 0.74
288.15 K, x2 = 0.0008985, x1 = 0.001896 | 0.592
288.15 K, x2 = 0.0008988, x1 = 0.001509 | 0.493
288.15 K, x2 = 0.0008992, x1 = 0.001132 | 0.388
288.15 K, x2 = 0.0008995, x1 = 0.0007259 | 0.276
288.15 K, x2 = 0.001788, x1 = 0.005723 | 1.23
288.15 K, x2 = 0.001788, x1 = 0.005981 | 1.26
288.15 K, x2 = 0.001789, x1 = 0.005422 | 1.19
288.15 K, x2 = 0.00179, x1 = 0.004738 | 1.11
288.15 K, x2 = 0.00179, x1 = 0.005091 | 1.15
288.15 K, x2 = 0.001791, x1 = 0.004351 | 1.06
288.15 K, x2 = 0.001792, x1 = 0.003932 | 0.991
288.15 K, x2 = 0.001793, x1 = 0.002974 | 0.81
288.15 K, x2 = 0.001793, x1 = 0.003476 | 0.909
288.15 K, x2 = 0.001794, x1 = 0.002419 | 0.692
288.15 K, x2 = 0.001796, x1 = 0.001458 | 0.463
288.15 K, x2 = 0.001796, x1 = 0.001805 | 0.55
288.15 K, x2 = 0.001797, x1 = 0.0007114 | 0.261
288.15 K, x2 = 0.001797, x1 = 0.001099 | 0.365
293.15 K, x2 = 0.0008946, x1 = 0.006158 | 1.51
293.15 K, x2 = 0.0008949, x1 = 0.005882 | 1.47
293.15 K, x2 = 0.0008952, x1 = 0.005573 | 1.42
293.15 K, x2 = 0.0008955, x1 = 0.005248 | 1.38
293.15 K, x2 = 0.0008958, x1 = 0.004887 | 1.32
293.15 K, x2 = 0.0008961, x1 = 0.004505 | 1.27
293.15 K, x2 = 0.0008965, x1 = 0.004077 | 1.19
293.15 K, x2 = 0.0008969, x1 = 0.003608 | 1.1
293.15 K, x2 = 0.0008974, x1 = 0.003092 | 0.974
293.15 K, x2 = 0.0008979, x1 = 0.002527 | 0.84
293.15 K, x2 = 0.0008985, x1 = 0.001896 | 0.67
293.15 K, x2 = 0.0008988, x1 = 0.001509 | 0.557
293.15 K, x2 = 0.0008992, x1 = 0.001132 | 0.437
293.15 K, x2 = 0.0008995, x1 = 0.0007259 | 0.309
293.15 K, x2 = 0.001788, x1 = 0.005721 | 1.4
293.15 K, x2 = 0.001788, x1 = 0.005981 | 1.44
293.15 K, x2 = 0.001789, x1 = 0.00542 | 1.36
293.15 K, x2 = 0.00179, x1 = 0.004736 | 1.26
293.15 K, x2 = 0.00179, x1 = 0.005091 | 1.31
293.15 K, x2 = 0.001791, x1 = 0.004351 | 1.2
293.15 K, x2 = 0.001792, x1 = 0.003932 | 1.12
293.15 K, x2 = 0.001793, x1 = 0.002972 | 0.917
293.15 K, x2 = 0.001793, x1 = 0.003476 | 1.03
293.15 K, x2 = 0.001794, x1 = 0.002419 | 0.785
293.15 K, x2 = 0.001796, x1 = 0.001458 | 0.521
293.15 K, x2 = 0.001796, x1 = 0.001805 | 0.621
293.15 K, x2 = 0.001797, x1 = 0.0007114 | 0.293
293.15 K, x2 = 0.001797, x1 = 0.001099 | 0.411
298.15 K, x2 = 0.0008946, x1 = 0.006158 | 1.7
298.15 K, x2 = 0.0008949, x1 = 0.00588 | 1.65
298.15 K, x2 = 0.0008952, x1 = 0.005573 | 1.6
298.15 K, x2 = 0.0008955, x1 = 0.005246 | 1.55
298.15 K, x2 = 0.0008958, x1 = 0.004885 | 1.49
298.15 K, x2 = 0.0008961, x1 = 0.004505 | 1.43
298.15 K, x2 = 0.0008965, x1 = 0.004077 | 1.34
298.15 K, x2 = 0.0008969, x1 = 0.003608 | 1.23
298.15 K, x2 = 0.0008974, x1 = 0.003092 | 1.1
298.15 K, x2 = 0.0008979, x1 = 0.002527 | 0.942
298.15 K, x2 = 0.0008985, x1 = 0.001896 | 0.751
298.15 K, x2 = 0.0008988, x1 = 0.001509 | 0.623
298.15 K, x2 = 0.0008992, x1 = 0.001132 | 0.489
298.15 K, x2 = 0.0008995, x1 = 0.0007259 | 0.343
298.15 K, x2 = 0.001788, x1 = 0.005721 | 1.59
298.15 K, x2 = 0.001788, x1 = 0.00598 | 1.64
298.15 K, x2 = 0.001789, x1 = 0.00542 | 1.54
298.15 K, x2 = 0.00179, x1 = 0.004736 | 1.42
298.15 K, x2 = 0.00179, x1 = 0.005091 | 1.49
298.15 K, x2 = 0.001791, x1 = 0.004349 | 1.35
298.15 K, x2 = 0.001792, x1 = 0.003932 | 1.27
298.15 K, x2 = 0.001793, x1 = 0.002972 | 1.03
298.15 K, x2 = 0.001793, x1 = 0.003476 | 1.17
298.15 K, x2 = 0.001794, x1 = 0.002419 | 0.883
298.15 K, x2 = 0.001796, x1 = 0.001458 | 0.586
298.15 K, x2 = 0.001796, x1 = 0.001805 | 0.699
298.15 K, x2 = 0.001797, x1 = 0.0007114 | 0.326
298.15 K, x2 = 0.001797, x1 = 0.001099 | 0.462
303.15 K, x2 = 0.0008946, x1 = 0.006155 | 1.91
303.15 K, x2 = 0.0008949, x1 = 0.005878 | 1.86
303.15 K, x2 = 0.0008952, x1 = 0.005571 | 1.8
303.15 K, x2 = 0.0008955, x1 = 0.005244 | 1.74
303.15 K, x2 = 0.0008958, x1 = 0.004883 | 1.67
303.15 K, x2 = 0.0008961, x1 = 0.004503 | 1.6
303.15 K, x2 = 0.0008965, x1 = 0.004075 | 1.49
303.15 K, x2 = 0.0008969, x1 = 0.003606 | 1.38
303.15 K, x2 = 0.0008974, x1 = 0.003092 | 1.22
303.15 K, x2 = 0.0008979, x1 = 0.002527 | 1.05
303.15 K, x2 = 0.0008985, x1 = 0.001896 | 0.834
303.15 K, x2 = 0.0008988, x1 = 0.001509 | 0.689
303.15 K, x2 = 0.0008992, x1 = 0.001132 | 0.543
303.15 K, x2 = 0.0008995, x1 = 0.0007259 | 0.385
303.15 K, x2 = 0.001788, x1 = 0.005719 | 1.79
303.15 K, x2 = 0.001788, x1 = 0.005978 | 1.84
303.15 K, x2 = 0.001789, x1 = 0.005417 | 1.73
303.15 K, x2 = 0.00179, x1 = 0.004734 | 1.6
303.15 K, x2 = 0.00179, x1 = 0.005087 | 1.67
303.15 K, x2 = 0.001791, x1 = 0.004349 | 1.52
303.15 K, x2 = 0.001792, x1 = 0.00393 | 1.42
303.15 K, x2 = 0.001793, x1 = 0.002972 | 1.16
303.15 K, x2 = 0.001793, x1 = 0.003474 | 1.3
303.15 K, x2 = 0.001794, x1 = 0.002419 | 0.983
303.15 K, x2 = 0.001796, x1 = 0.001458 | 0.652
303.15 K, x2 = 0.001796, x1 = 0.001805 | 0.778
303.15 K, x2 = 0.001797, x1 = 0.0007114 | 0.361
303.15 K, x2 = 0.001797, x1 = 0.001099 | 0.512
308.15 K, x2 = 0.0008946, x1 = 0.006153 | 2.17
308.15 K, x2 = 0.0008949, x1 = 0.005877 | 2.11
308.15 K, x2 = 0.0008952, x1 = 0.00557 | 2.04
308.15 K, x2 = 0.0008955, x1 = 0.005243 | 1.95
308.15 K, x2 = 0.0008958, x1 = 0.004881 | 1.86
308.15 K, x2 = 0.0008961, x1 = 0.004503 | 1.77
308.15 K, x2 = 0.0008965, x1 = 0.004075 | 1.66
308.15 K, x2 = 0.0008969, x1 = 0.003606 | 1.52
308.15 K, x2 = 0.0008974, x1 = 0.003092 | 1.35
308.15 K, x2 = 0.0008979, x1 = 0.002525 | 1.15
308.15 K, x2 = 0.0008985, x1 = 0.001896 | 0.905
308.15 K, x2 = 0.0008988, x1 = 0.001509 | 0.753
308.15 K, x2 = 0.0008992, x1 = 0.001132 | 0.6
308.15 K, x2 = 0.0008995, x1 = 0.0007259 | 0.446
308.15 K, x2 = 0.001788, x1 = 0.005717 | 2
308.15 K, x2 = 0.001788, x1 = 0.005974 | 2.06
308.15 K, x2 = 0.001789, x1 = 0.005415 | 1.94
308.15 K, x2 = 0.00179, x1 = 0.004732 | 1.78
308.15 K, x2 = 0.00179, x1 = 0.005087 | 1.86
308.15 K, x2 = 0.001791, x1 = 0.004348 | 1.68
308.15 K, x2 = 0.001792, x1 = 0.00393 | 1.58
308.15 K, x2 = 0.001793, x1 = 0.002972 | 1.28
308.15 K, x2 = 0.001793, x1 = 0.003474 | 1.44
308.15 K, x2 = 0.001794, x1 = 0.002419 | 1.09
308.15 K, x2 = 0.001796, x1 = 0.001456 | 0.714
308.15 K, x2 = 0.001796, x1 = 0.001805 | 0.853
308.15 K, x2 = 0.001797, x1 = 0.0007114 | 0.409
308.15 K, x2 = 0.001797, x1 = 0.001099 | 0.567
